Legend:
[1] = molecular target: N-lysine methyltransferase SMYD2 (Homo sapiens) (UniProt Q9NRG4); conditions: at 1 µM
[2] = molecular target: Ephrin type-A receptor 4 (Homo sapiens, UniProt P54764); experiment: Selectivity interaction (KinomeScan (DiscoverX)) EUB0000045b EPHA4
[3] = molecular target: Mitogen-activated protein kinase 11 (Homo sapiens) (UniProt Q15759); experiment: Selectivity interaction (KinomeScan (DiscoverX)) EUB0000045b MAPK11
[4] = molecular target: Mitogen-activated protein kinase kinase kinase 20 (Homo sapiens) (UniProt Q9NYL2); experiment: Selectivity interaction (LanthaScreen Eu Kinase Binding Assay) EUB0001632a MAP3K20; conditions: at 10 µM
[5] = molecular target: Angiopoietin-1 receptor (Homo sapiens) (UniProt Q02763); experiment: (§1) Selectivity interaction (Kinase panel (Z-LYTE Assay)) EUB0001632a TEK; conditions: at 10 µM
Angiopoietin-1 receptor (Homo sapiens), sequence (Q02763 whole entry): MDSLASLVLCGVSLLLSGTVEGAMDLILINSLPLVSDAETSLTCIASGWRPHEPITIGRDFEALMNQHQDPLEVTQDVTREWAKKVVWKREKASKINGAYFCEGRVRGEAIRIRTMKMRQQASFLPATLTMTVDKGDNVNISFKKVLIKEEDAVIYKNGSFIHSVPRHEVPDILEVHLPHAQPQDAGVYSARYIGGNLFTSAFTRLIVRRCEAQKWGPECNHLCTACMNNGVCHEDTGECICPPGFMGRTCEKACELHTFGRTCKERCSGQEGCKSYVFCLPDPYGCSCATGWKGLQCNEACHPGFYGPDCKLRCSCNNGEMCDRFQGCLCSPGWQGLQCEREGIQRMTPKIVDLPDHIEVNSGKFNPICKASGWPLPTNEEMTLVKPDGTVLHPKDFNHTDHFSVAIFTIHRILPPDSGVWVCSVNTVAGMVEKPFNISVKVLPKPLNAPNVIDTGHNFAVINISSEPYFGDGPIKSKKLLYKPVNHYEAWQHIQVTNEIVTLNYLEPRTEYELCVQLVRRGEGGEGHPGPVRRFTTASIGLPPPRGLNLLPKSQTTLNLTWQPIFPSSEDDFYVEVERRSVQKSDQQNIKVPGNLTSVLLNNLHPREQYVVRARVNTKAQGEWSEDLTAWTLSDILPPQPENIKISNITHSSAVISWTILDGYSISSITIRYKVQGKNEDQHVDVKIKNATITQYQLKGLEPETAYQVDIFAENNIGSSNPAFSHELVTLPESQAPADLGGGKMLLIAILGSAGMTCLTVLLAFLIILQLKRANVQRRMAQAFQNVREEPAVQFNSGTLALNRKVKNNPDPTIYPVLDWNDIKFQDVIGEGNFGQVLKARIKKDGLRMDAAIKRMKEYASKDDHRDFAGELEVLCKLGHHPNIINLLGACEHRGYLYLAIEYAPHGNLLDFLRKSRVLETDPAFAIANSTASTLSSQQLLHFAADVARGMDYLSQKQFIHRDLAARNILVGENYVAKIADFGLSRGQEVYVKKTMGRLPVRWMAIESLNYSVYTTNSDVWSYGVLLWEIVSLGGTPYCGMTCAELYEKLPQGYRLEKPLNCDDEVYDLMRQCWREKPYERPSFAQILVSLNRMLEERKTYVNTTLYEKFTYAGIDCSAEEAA

[6] = test system: Angiopoietin-1 receptor (Homo sapiens), Q02763 [Y897S]; experiment: as §1; conditions: at 10 µM
Angiopoietin-1 receptor (Homo sapiens), Q02763 [Y897S], sequence (Q02763 whole entry Y897S): as the sequence (Q02763 whole entry) above, with Y897S counted along it

[7] = molecular target: Protein arginine N-methyltransferase 8 (Homo sapiens, UniProt Q9NR22); experiment: Selectivity interaction (Methyltransferase screen (radiometric assays, panel of 8 PRMTs, 21 protein lysine methyltransferases, 3 DNA methyltransferases, and one RNA methyltransferase)) EUB0000272b PRMT8
Protein arginine N-methyltransferase 8, sequence (Q9NR22 2-394 limits assumed): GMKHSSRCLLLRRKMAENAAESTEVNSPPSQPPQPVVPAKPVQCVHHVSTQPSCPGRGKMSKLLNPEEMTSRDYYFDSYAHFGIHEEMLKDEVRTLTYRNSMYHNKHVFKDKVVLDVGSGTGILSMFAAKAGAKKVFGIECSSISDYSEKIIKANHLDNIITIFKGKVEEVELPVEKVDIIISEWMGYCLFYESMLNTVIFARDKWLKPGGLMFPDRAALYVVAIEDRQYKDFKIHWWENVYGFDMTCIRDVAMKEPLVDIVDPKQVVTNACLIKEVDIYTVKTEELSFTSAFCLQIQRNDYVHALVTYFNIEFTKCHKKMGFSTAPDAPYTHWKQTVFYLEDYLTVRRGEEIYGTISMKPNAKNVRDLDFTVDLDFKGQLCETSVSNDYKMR

[8] = molecular target: T1, Protein kinase C iota type (Homo sapiens) (UniProt P41743); experiment: Selectivity interaction (KinomeScan (DiscoverX)) EUB0000666a PRKCI; conditions: at 10 µM
T1 sequence (whole entry): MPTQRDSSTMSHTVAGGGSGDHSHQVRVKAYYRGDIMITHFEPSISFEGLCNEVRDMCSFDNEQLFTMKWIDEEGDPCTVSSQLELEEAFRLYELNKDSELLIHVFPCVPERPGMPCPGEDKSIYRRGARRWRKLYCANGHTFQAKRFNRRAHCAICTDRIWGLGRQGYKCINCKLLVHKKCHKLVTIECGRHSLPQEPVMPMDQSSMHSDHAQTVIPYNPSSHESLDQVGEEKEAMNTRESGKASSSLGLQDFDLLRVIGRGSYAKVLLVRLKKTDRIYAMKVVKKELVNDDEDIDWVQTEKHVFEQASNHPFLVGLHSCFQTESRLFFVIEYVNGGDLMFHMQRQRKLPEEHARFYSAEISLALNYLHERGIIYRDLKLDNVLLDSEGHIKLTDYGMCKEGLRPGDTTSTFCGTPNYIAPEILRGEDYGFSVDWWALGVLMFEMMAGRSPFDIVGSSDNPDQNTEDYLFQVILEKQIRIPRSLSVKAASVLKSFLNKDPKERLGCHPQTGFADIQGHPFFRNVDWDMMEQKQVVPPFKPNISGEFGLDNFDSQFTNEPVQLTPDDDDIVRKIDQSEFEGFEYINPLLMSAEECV

[9] = molecular target: Homeodomain-interacting protein kinase 3 (Homo sapiens, UniProt Q9H422); experiment: Selectivity interaction (Upstate Kinase Profiler service (Millipore)) EUB0000056c HIPK3; conditions: at 1 µM
Homeodomain-interacting protein kinase 3, sequence (Q9H422 whole entry, looked up): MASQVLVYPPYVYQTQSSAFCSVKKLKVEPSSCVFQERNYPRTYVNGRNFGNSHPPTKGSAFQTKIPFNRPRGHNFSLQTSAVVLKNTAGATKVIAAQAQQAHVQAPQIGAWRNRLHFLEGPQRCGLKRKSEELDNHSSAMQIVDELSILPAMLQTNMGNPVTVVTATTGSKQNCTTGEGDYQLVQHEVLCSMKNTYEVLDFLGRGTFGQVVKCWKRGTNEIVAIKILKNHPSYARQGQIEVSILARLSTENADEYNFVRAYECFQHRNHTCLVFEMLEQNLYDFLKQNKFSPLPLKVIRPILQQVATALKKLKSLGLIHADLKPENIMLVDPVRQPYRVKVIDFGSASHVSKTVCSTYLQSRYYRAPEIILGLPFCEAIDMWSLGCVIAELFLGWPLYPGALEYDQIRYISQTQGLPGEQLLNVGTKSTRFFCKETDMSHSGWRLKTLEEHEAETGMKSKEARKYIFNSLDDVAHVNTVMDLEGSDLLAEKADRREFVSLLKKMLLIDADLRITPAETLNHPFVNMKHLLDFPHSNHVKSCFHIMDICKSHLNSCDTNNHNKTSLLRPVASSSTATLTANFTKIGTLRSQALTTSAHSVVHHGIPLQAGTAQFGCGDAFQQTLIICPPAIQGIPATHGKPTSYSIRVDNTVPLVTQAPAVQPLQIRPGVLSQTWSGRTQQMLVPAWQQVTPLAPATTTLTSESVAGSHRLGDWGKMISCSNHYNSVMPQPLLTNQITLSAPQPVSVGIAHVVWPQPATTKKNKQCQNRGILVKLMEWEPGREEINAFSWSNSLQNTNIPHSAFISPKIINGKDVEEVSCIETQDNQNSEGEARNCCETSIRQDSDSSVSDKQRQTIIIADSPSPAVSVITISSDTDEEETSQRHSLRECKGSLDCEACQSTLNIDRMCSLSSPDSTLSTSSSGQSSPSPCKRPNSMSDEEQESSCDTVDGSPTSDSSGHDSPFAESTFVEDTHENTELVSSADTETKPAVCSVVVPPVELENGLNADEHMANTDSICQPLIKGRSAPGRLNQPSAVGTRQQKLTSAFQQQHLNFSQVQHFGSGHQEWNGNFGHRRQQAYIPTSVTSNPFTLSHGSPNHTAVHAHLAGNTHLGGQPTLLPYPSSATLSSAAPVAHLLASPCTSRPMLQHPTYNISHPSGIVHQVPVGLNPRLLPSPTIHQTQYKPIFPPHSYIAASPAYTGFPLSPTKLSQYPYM

[10] = molecular target: Protein-tyrosine kinase 6 (Homo sapiens, UniProt Q13882); experiment: Selectivity interaction (Upstate Kinase Profiler service (Millipore)) EUB0000056c PTK6; conditions: at 1 µM
[11] = molecular target: T2, Aurora kinase A (Homo sapiens) (UniProt O14965); experiment: Selectivity interaction (ProQinase) EUB0000171b STK6
T2 sequence (whole entry): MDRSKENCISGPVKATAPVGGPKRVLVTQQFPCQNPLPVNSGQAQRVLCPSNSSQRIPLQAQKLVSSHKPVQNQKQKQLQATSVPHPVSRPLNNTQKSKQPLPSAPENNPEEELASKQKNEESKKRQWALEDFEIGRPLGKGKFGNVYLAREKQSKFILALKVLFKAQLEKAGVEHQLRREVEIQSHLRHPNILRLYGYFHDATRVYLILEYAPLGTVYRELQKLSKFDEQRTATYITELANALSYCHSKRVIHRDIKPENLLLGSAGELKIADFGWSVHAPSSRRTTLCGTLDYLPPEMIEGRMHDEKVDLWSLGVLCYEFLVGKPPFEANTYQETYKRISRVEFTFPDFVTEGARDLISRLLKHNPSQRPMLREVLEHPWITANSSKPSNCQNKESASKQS

[12] = molecular target: Dual specificity mitogen-activated protein kinase kinase 1 (Homo sapiens, UniProt Q02750); experiment: Selectivity interaction (ActivX KiNativ screen (ex vivo kinase selectivity in human PBMCs)) EUB0001619a MAP2K1; type: cell-based; conditions: PBMC, at 1 µM
Dual specificity mitogen-activated protein kinase kinase 1, sequence (Q02750 whole entry): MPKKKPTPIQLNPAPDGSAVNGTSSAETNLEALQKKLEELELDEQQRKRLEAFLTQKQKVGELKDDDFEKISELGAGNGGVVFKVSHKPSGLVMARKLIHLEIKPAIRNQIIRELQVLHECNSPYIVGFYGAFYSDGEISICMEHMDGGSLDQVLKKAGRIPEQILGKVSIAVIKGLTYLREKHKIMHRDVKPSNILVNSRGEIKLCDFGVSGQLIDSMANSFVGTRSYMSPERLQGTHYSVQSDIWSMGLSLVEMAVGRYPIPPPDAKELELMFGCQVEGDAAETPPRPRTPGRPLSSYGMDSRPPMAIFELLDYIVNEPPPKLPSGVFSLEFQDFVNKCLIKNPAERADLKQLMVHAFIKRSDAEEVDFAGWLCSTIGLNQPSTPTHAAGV

[13] = molecular target: Dual specificity protein kinase CLK4 (Homo sapiens, UniProt Q9HAZ1); experiment: Selectivity interaction (KinomeScan (DiscoverX)) EUB0000607a CLK4; conditions: at 10 µM
[14] = molecular target: Serine/threonine-protein kinase 26 (Homo sapiens, UniProt Q9P289); experiment: Selectivity interaction (ActivX KiNativ screen (kinase selectivity in THP-1 cell lysates)) EUB0000639a STK26; type: subcellular; conditions: lysate
Serine/threonine-protein kinase 26, sequence (Q9P289 2-416 limits assumed): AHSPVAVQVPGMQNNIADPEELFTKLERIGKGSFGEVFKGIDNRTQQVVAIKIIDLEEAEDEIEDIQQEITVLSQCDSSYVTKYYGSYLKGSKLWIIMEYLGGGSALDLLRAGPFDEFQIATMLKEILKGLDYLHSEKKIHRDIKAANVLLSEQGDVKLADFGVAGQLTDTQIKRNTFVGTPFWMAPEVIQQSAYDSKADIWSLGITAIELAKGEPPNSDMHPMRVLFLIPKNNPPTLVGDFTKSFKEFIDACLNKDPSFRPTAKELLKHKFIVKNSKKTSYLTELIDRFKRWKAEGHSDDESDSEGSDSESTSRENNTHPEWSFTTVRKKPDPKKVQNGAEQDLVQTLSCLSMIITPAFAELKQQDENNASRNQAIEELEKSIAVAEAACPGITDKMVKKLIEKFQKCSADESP

[15] = molecular target: T3, SNF-related serine/threonine-protein kinase (Homo sapiens) (UniProt Q9NRH2); experiment: Selectivity interaction (KinomeScan (DiscoverX)) EUB0000092b SNRK; conditions: at 10 µM
T3 sequence (whole entry): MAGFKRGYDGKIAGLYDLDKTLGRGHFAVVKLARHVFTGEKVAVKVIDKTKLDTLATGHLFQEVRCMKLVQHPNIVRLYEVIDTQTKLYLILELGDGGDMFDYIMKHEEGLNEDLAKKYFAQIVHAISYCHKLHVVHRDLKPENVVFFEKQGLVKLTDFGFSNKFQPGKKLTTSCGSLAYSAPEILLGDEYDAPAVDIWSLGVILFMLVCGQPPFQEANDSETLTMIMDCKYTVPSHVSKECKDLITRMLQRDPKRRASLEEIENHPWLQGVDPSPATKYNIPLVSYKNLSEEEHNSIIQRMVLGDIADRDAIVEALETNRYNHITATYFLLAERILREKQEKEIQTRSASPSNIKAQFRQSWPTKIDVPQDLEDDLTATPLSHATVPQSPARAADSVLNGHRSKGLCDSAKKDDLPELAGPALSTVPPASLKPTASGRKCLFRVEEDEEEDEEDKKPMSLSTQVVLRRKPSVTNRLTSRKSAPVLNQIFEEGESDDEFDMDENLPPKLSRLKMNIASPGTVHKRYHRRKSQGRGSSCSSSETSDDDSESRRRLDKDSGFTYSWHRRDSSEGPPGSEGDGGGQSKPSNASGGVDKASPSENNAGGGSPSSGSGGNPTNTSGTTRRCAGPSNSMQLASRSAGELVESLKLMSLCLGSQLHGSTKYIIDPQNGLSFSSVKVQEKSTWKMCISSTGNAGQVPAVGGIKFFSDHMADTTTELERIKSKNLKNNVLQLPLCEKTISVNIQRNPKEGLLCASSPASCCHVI

Ephrin type-A receptor 4, sequence (P54764 whole entry): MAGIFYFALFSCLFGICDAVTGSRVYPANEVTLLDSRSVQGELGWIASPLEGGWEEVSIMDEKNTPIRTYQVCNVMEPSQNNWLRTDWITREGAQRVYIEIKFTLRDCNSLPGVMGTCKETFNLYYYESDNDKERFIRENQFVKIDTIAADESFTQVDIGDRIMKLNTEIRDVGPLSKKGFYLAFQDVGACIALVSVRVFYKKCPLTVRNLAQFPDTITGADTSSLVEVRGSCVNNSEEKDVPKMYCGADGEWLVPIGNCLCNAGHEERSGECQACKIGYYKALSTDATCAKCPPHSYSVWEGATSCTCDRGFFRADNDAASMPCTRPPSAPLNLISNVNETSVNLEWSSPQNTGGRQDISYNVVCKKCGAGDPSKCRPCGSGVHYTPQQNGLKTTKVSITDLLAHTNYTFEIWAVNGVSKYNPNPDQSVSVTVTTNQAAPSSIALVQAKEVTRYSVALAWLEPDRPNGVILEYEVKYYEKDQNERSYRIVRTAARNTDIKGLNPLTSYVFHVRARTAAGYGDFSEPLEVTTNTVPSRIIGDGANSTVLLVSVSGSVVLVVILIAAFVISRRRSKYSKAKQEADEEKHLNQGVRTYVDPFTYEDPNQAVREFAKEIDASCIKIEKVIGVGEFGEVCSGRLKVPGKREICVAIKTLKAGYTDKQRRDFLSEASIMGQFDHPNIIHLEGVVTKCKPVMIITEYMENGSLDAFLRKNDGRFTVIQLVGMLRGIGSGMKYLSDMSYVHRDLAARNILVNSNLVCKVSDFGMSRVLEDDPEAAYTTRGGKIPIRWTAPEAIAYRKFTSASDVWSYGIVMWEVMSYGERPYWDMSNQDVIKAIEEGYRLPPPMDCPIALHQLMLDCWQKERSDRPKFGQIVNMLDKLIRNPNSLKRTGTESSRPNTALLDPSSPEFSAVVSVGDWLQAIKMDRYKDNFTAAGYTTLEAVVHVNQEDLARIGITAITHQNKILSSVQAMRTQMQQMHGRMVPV
Mitogen-activated protein kinase 11 (Homo sapiens), sequence (Q15759 whole entry): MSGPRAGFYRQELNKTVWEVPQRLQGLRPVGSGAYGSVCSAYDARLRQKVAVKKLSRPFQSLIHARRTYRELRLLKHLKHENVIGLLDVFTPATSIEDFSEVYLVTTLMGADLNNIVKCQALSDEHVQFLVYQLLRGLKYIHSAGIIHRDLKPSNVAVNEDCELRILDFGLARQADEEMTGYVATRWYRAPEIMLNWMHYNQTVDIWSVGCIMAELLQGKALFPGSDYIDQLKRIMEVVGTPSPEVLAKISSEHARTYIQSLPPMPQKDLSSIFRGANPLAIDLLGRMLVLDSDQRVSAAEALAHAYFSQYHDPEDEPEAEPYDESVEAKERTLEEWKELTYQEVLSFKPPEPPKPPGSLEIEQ

SMILES: CNCCN1CCC(c2cc(CN(C)C(=O)c3cccc(Oc4ccccc4)c3)ccn2)CC1
- % activity [1]: > 90%

SMILES: C=CC(=O)Nc1cc(-n2c(=O)ccc3cnc4ccc(-c5ccc(NS(C)(=O)=O)cc5)cc4c32)ccc1C
- % of control ([2]; at 1 µM): 89%
- % of control ([2]; at 10 µM): 100%
- % of control ([3]; at 1 µM): 90%
- % of control ([3]; at 10 µM): 95%

SMILES: Cn1cc(-n2cnc3c(NCc4nc5cc(Cl)c(Cl)cc5[nH]4)nc(N4CCOCC4)nc32)cn1
- % of inhibition [4]: -9.9%
- % of control [5]: -5.98%
- % of control [6]: 0.243%

SMILES: Cc1cc(C)cc([C@H]2c3cc(C)ccc3NC(=O)CN2C(=O)c2ccc(Br)s2)c1
- % of activity ([7]; at 1 µM): 100%
- % of activity ([7]; at 10 µM): 96.7%

SMILES: O=C(NOC[C@H](O)CO)c1ccc(F)c(F)c1Nc1ccc(I)cc1F
- % of control [8]: 70%

SMILES: Cc1ccc(-c2ccc3c(ccc4sc5c(c43)NC[C@@H](C)NC5=O)n2)cn1
- % of inhibition [9]: -11%
- % of inhibition [10]: 0%

SMILES: C=CC(=O)Nc1cccc(C(=O)Nc2ccc(Nc3cc(-c4[nH]c(SC)nc4C)ccn3)cc2)c1
- % of control ([11]; at 1 µM): 74%
- % of control ([11]; at 5 µM): 34%

SMILES: N#Cc1cccc(-c2c[nH]c3ncnc(N4CCOCC4)c23)c1
- % of inhibition [12]: 14%

SMILES: CNC(=O)Nc1ccc(-c2nc(N3CC4CCC(C3)O4)c3cnn(C4CCC5(CC4)OCCO5)c3n2)cc1
- % of control [13]: 88%

SMILES: CC[C@@H]1[C@H](F)C(=O)N[C@@H]1COc1nccc2cc(C(N)=O)c(OC)cc12 [ZIMLOVISERTIB]
- % of inhibition ([14]; at 0.01 µM): -5.3%
- % of inhibition ([14]; at 0.04 µM): 19.1%
- % of inhibition ([14]; at 0.2 µM): -26.4%
- % of inhibition ([14]; at 1 µM): 10.2%
- % of inhibition ([14]; at 5 µM): 0.7%

SMILES: CCC(=O)N1CCN(c2ccc(-n3c(=O)ccc4cnc5ccc(-c6cnc7ccccc7c6)cc5c43)cc2C(F)(F)F)CC1
- % of control [15]: 60%

Reference: ChEMBL document CHEMBL5465560, “Selectivity Literature for EUbOPEN Chemogenomic Library” (2024)
